Source: patent US8846639B2, “Oligomeric compounds comprising bicyclic nucleosides and having reduced toxicity” (Isis Pharmaceutical, Inc., priority 2008, dated 2014)
Where “and” joins values, the source holds several entries; their conditions need not be identical. Equal entries are not always repeated.

What was measured:
[1] = system: PTEN RNA; assay: PTEN RNA in liver (Example 15 in vivo study); design: species or system mice; details: 72 h, compared to PBS control
Procedure: (§1) Six week old male Balb/c mice (Jackson Laboratory, Bar Harbor, Me.) were administered a single intraperitoneal (i.p) injection of oligomers as set forth in the table below.
(§2) Mice were divided into 9 groups, with 4 mice in each group. The mice of 8 groups received a single dose, administered i.p., of one of the above oligomeric compounds at a dose of 100, 32, 10, or 3.2 mg/kg. The final group was dosed with phosphate buffered saline (PBS) as a control. The mice were sacrificed 72 hours after administration. Antisense activity was determined by measuring PTEN RNA in liver.

[2] = Serum ALT, individual animals (Example 15); assay type: in vivo, mice; details: for ALT levels - Individual animals: serum, four animals
Procedure: as §2

[3] = Body weight at sacrifice relative to pre-dose (Example 15); assay type: in vivo, mice; details: for % of pre-dose weight: 72 h, PBS = 99
Procedure: as §2
(§3) Body weight was measured before treatment and again at sacrifice 72 hours after treatment.

[4] = Spleen weight as a measure of inflammatory response (Example 15); assay type: in vivo, mice; details: for spleen weight, % Control: relative to PBS control
Procedure: as §2
(§4) Spleens were weighed as a measure of inflammatory response.

[5] = system: PTEN RNA; assay: PTEN RNA in liver (Example 16 in vivo study); design: species or system mice; details: for % Reduction PTEN RNA: liver, 72 h, compared to PBS control; for ED50: PTEN RNA in liver
Procedure: as §1
(§5) Mice were divided into 17 groups, with 4 mice in each group. The mice of 16 groups received a single dose, administered i.p., of one of the above oligomeric compounds at a dose of 100, 32, 10, or 3.2 mg/kg. The final group was dosed with phosphate buffered saline (PBS) as a control. The mice were sacrificed 72 hours after administration. Antisense activity was determined by measuring PTEN RNA in liver and is expressed as % reduction compared to PBS control mice.

[6] = Serum ALT, individual animals (Example 16); assay type: in vivo, mice; details: four animals
Procedure: as §5
Toxicity was assessed by measuring alanine aminotranferease (ALT) in serum.

[7] = Body weight at sacrifice relative to pre-dose (Example 16); assay type: in vivo, mice; details: 72 h, PBS = 102
Procedure: as §5, §3

[8] = Spleen weight as a measure of inflammatory response (Example 16); assay type: in vivo, mice; details: for spleen weight, % Control: relative to PBS control
Procedure: as §5, §4

| Substance | % Reduction PTEN RNA ([1]; 3.2 mg/kg single i.p.) | % Reduction PTEN RNA ([1]; 10 mg/kg single i.p.) | % Reduction PTEN RNA ([1]; 32 mg/kg single i.p.) | % Reduction PTEN RNA ([1]; 100 mg/kg single i.p.) | ALT levels - Individual animals ([2]; 3.2 mg/kg) | ALT levels - Individual animals ([2]; 10 mg/kg) | ALT levels - Individual animals ([2]; 32 mg/kg) | ALT levels - Individual animals ([2]; 100 mg/kg) | % of pre-dose weight ([3]; 3.2 mg/kg) | % of pre-dose weight ([3]; 10 mg/kg) | % of pre-dose weight ([3]; 32 mg/kg) | % of pre-dose weight ([3]; 100 mg/kg) | spleen weight, % Control ([4]; 3.2 mg/kg) | spleen weight, % Control ([4]; 10 mg/kg) | spleen weight, % Control ([4]; 32 mg/kg) | spleen weight, % Control ([4]; 100 mg/kg) | % Reduction PTEN RNA ([5]; 3.2 mg/kg single i.p.) | % Reduction PTEN RNA ([5]; 10 mg/kg single i.p.) | % Reduction PTEN RNA ([5]; 32 mg/kg single i.p.) | % Reduction PTEN RNA ([5]; 100 mg/kg single i.p.) | further results |
| --- | --- | --- | --- | --- | --- | --- | --- | --- | --- | --- | --- | --- | --- | --- | --- | --- | --- | --- | --- | --- | --- |
| ^mCas Tas Tds Ads Gds Cds Ads Cds Tds Gds Gds Cds ^mCas Ta [ISIS 435854] | 48% | 73% | 94% | 95% | 15 IU/L and 22 IU/L and 20 IU/L and 11 IU/L | 23 IU/L and 21 IU/L and 33 IU/L and 28 IU/L | 24 IU/L and 29 IU/L and 16 IU/L and 46 IU/L | 1575 IU/L and 854 IU/L and 1665 IU/L and 3948 IU/L | 99% | 102% | 102% | 94% | 112% | 87% | 115% | 160% |  |  |  |  | Serum ALT ([2]; highest dose): elevated; body weight ([3]; highest dose): some weight loss; spleen weight compared to control and to the non-methylated compound ([4]; mouse, in vivo): marked increase |
| ^mCxs Txs Tds Ads Gds Cds Ads Cds Tds Gds Gds Cds ^mCxs Tx [ISIS 445545] |  |  |  |  |  |  |  |  |  |  |  |  |  |  |  |  | 21% | 55% | 87% | 92% | ED50 [5]: 7.7 mg/kg; ALT levels - Individual animals ([6]; 3.2 mg/kg): 20 IU/L and 34 IU/L (2×) and 31 IU/L; ALT levels - Individual animals ([6]; 10 mg/kg): 79 IU/L and 19 IU/L and 28 IU/L and 18 IU/L; ALT levels - Individual animals ([6]; 32 mg/kg): 22 IU/L and 45 IU/L and 24 IU/L and 47 IU/L; ALT levels - Individual animals ([6]; 100 mg/kg): 102 IU/L and 135 IU/L and 277 IU/L and 85 IU/L; % pre-dose wt ([7]; 3.2 mg/kg): 100%; % pre-dose wt ([7]; 10 mg/kg): 102%; % pre-dose wt ([7]; 32 mg/kg): 101%; % pre-dose wt ([7]; 100 mg/kg): 102%; spleen weight, % Control ([8]; 3.2 mg/kg): 100%; spleen weight, % Control ([8]; 10 mg/kg): 99%; spleen weight, % Control ([8]; 32 mg/kg): 134%; spleen weight, % Control ([8]; 100 mg/kg): 139%; spleen weight compared to control and to the non-methylated compound ([8]; mouse, in vivo): increase in spleen weight |
| Cas Uas Tds Ads Gds Cds Ads Cds Tds Gds Gds Cds Cas Ua [ISIS 396006] | 47% | 77% | 95% | 97% | 27 IU/L and 19 IU/L and 17 IU/L and 24 IU/L | 18 IU/L and 22 IU/L and 19 IU/L and 20 IU/L | 24 IU/L and 19 IU/L and 15 IU/L and 23 IU/L | 28 IU/L (2×) and 23 IU/L (2×) | 100% | 101% | 101% | 100% | 95% | 100% | 97% | 120% |  |  |  |  |  |
| ^mCjs Tjs Tds Ads Gds Cds Ads Cds Tds Gds Gds Cds ^mCjs Tj [ISIS 443394] |  |  |  |  |  |  |  |  |  |  |  |  |  |  |  |  | 16% | 39% | 68% | 89% | ED50 [5]: 13.5 mg/kg; ALT levels - Individual animals ([6]; 3.2 mg/kg): 28 IU/L and 26 IU/L and 30 IU/L and 69 IU/L; ALT levels - Individual animals ([6]; 10 mg/kg): 55 IU/L and 28 IU/L and 32 IU/L (2×); ALT levels - Individual animals ([6]; 32 mg/kg): 55 IU/L and 25 IU/L (2×) and 28 IU/L; ALT levels - Individual animals ([6]; 100 mg/kg): 23 IU/L (2×) and 44 IU/L and 18 IU/L; % pre-dose wt ([7]; 3.2 mg/kg): 102%; % pre-dose wt ([7]; 10 mg/kg): 102%; % pre-dose wt ([7]; 32 mg/kg): 101%; % pre-dose wt ([7]; 100 mg/kg): 101%; spleen weight, % Control ([8]; 3.2 mg/kg): 106%; spleen weight, % Control ([8]; 10 mg/kg): 96%; spleen weight, % Control ([8]; 32 mg/kg): 97%; spleen weight, % Control ([8]; 100 mg/kg): 98% |
